“And” between values parts separate entries of the source, which are not always exact repeats. Equal entries are not always repeated.
**Q.** With `COc1cc(-c2ncnc(C(F)(F)F)c2Cl)c(F)cc1Cl` [A-1, 5-chloro-4-(4-chloro-2-fluoro-5-methoxyphenyl)-6-trifluoromethylpyrimidine] as the compound, how does the melting point read?
**A.** 112 to 113 °C and 109 to 111 °C

**Q.** With `C#CCOc1cc(-c2ncnc(C(F)(F)F)c2Cl)c(F)cc1Cl` [A-3, 5-Chloro-4-(4-chloro-2-fluoro-5-propargyloxyphenyl)-6-trifluoromethylpyrimidine] as the compound, how does the melting point read?
**A.** 112 to 113 °C

**Q.** With `CCS(=O)(=O)Nc1cc(-c2ncnc(C(F)(F)F)c2Cl)c(F)cc1C#N` [A-16, 5-chloro-4-[4-cyano-5-(N-ethanesulfonylamino)-2-fluorophenyl]-6-trifluoromethylpyrimidine] as the compound, how does the melting point read?
**A.** 188 to 189 °C and 191 to 194 °C

**Q.** Which melting point does the source give for `CCS(=O)(=O)N(C(C)=O)c1cc(-c2ncnc(C(F)(F)F)c2Cl)c(F)cc1C#N` [A-23, 4-[5-(N-acetyl-N-ethanesulfonylamino)-4-cyano-2-fluorophenyl]-5-chloro-6-trifluoromethylpyrimidine] here?
**A.** 144 to 146 °C

**Q.** With `C=CCOc1cc(-c2ncnc(C(F)F)c2Cl)c(F)cc1Cl` [D-2, 4-(5-Allyloxy-4-chloro-2-fluorophenyl)-5-chloro-6-difluoromethylpyrimidine] as the compound, how does the melting point read?
**A.** 69 to 71 °C and 67 to 71 °C

**Q.** Which melting point does the source give for `Fc1cc(Cl)c(OC(F)F)cc1-c1ncnc(C(F)F)c1Cl` [D-7, 5-Chloro-4-[4-chloro-2-fluoro-5-(difluoromethoxy)phenyl]-6-difluoromethylpyrimidine] here?
**A.** 56 to 57 °C

**Q.** With `CCS(=O)(=O)Nc1cc(-c2ncnc(C(F)F)c2Cl)c(F)cc1Cl` [D-14, 5-Chloro-4-(4-chloro-5-ethylsulfonylamino-2-fluoro-phenyl)-6-difluoromethylpyrimidine] as the compound, how does the melting point read?
**A.** 138 to 139 °C

**Q.** Which melting point does the source give for `CCS(=O)(=O)Nc1cc(-c2ncnc(C(F)F)c2Cl)c(Cl)cc1Cl` [D-16, 5-Chloro-4-(2,4-dichloro-5-ethylsulfonylaminophenyl)-6-difluoromethylpyrimidine] here?
**A.** 140 to 142 °C

**Q.** With `CC(=O)Nc1cc(-c2ncnc(C(F)F)c2Cl)c(F)cc1C#N` [D-21, 4-(5-Acetylamino-4-cyano-2-fluorophenyl)-5-chloro-6-difluoromethylpyrimidine] as the compound, how does the melting point read?
**A.** 160 to 162 °C

**Q.** With `CCS(=O)(=O)Nc1cc(-c2ncnc(C(F)F)c2Cl)c(F)cc1C#N` [D-26, 5-Chloro-4-[4-cyano-5-(ethylsulfonylamino)-2-fluoro-phenyl]-6-difluoromethylpyrimidine] as the compound, how does the melting point read?
**A.** 200 to 202 °C

**Q.** With `CCS(=O)(=O)N(C(C)=O)c1cc(-c2ncnc(C(F)F)c2Cl)c(F)cc1C#N` [D-27, 4-[5-(N-acetyl-N-ethylsulfonylamino)-4-cyano-2-fluorophenyl]-5-chloro-6-difluoromethylpyrimidine] as the compound, how does the melting point read?
**A.** 121 to 122 °C

**Q.** For `COC(=O)c1cc(-c2ncnc(C(F)F)c2Cl)c(F)cc1Cl` [D-41, 2-Chloro-4-fluoro-5-(5-chloro-6-difluoromethyl-pyrimidin-4-yl)benzoic acid methyl ester], which melting point is on record?
**A.** 100 to 101 °C

**Q.** With `C#CCSc1cc(-c2ncnc(C(F)F)c2Cl)c(F)cc1Cl` [D-48, 5-Chloro-4-(4-chloro-2-fluoro-5-propargylthio-phenyl)-6-difluoromethylpyrimidine] as the compound, how does the melting point read?
**A.** 95 to 97 °C

**Q.** With `CC(C)NS(=O)(=O)c1cc(-c2ncnc(C(F)F)c2Cl)c(F)cc1Cl` [D-50, 2-Chloro-5-(5-chloro-6-difluoromethylpyrimidin-4-yl)-4-fluoro-N-isopropylbenzenesulfonamide] as the compound, how does the melting point read?
**A.** 172 to 175 °C

**Q.** For `Cc1ncnc(-c2ccc(Cl)cc2F)c1Cl` [E-1, 4-(4-Chloro-2-fluorophenyl)-5-chloro-6-methyl-pyrimidine], which melting point is on record?
**A.** 77 to 79 °C

**Q.** Which melting point does the source give for `CCS(=O)(=O)Nc1cc(-c2ncnc(C)c2Cl)c(F)cc1C#N` [E-10, 5-Chloro-4-[4-cyano-5-(ethylsulfonylamino)-2-fluoro-phenyl]-6-methylpyrimidine] here?
**A.** 182 to 184 °C

**Q.** Which melting point does the source give for `CCS(=O)(=O)Nc1cc(-c2ncnc(C(C)C)c2Cl)c(F)cc1C#N` [E-13, 5-Chloro-4-[4-cyano-5-(ethylsulfonylamino)-2-fluoro-phenyl]-6-isopropylpyrimidine] here?
**A.** 160 to 162 °C

**Q.** Which melting point does the source give for `C#CCOc1cc(-c2ncnc(C(Cl)Cl)c2Cl)c(F)cc1Cl` [E-19, 5-Chloro-4-(4-chloro-2-fluoro-5-propargyloxyphenyl)-6-dichloromethylpyrimidine] here?
**A.** 86 to 88 °C

**Q.** For `COc1cc(-c2ncnc(OC)c2Cl)c(F)cc1Cl` [H-1, 5-Chloro-4-(4-chloro-2-fluoro-5-methoxyphenyl)-6-methoxypyrimidine], which melting point is on record?
**A.** 142 to 143 °C

**Q.** With `CCS(=O)(=O)Nc1cc(-c2ncnc(OC)c2Cl)c(F)cc1C#N` [H-7, 5-Chloro-4-[4-cyano-5-(ethylsulfonylamino)-2-fluorophenyl]-6-methoxypyrimidine] as the compound, how does the melting point read?
**A.** 149 to 150 °C

**Q.** Which melting point does the source give for `CCS(=O)(=O)Nc1cc(-c2ncnc(Cl)c2Cl)c(F)cc1C#N` [H-16, 4,5-Dichloro-6-[4-cyano-5-(ethylsulfonylamino)-2-fluorophenyl]pyrimidine] here?
**A.** 149 to 150 °C

**Q.** With `CCS(=O)(=O)Nc1cc(C2(NC)NC=NC=C2Cl)c(F)cc1C#N` (stereo not shown) [H-20, 5-Chloro-6-[4-cyano-5-(ethylsulfonylamino)-2-fluoro-phenyl]-6-methylaminopyrimidine] as the compound, how does the melting point read?
**A.** 211 to 212 °C

**Q.** With `CCS(=O)(=O)Nc1cc(-c2ncnc(NOC)c2Cl)c(F)cc1C#N` [H-27, 5-Chloro-4-[4-cyano-5-(ethylsulfonylamino)-2-fluoro-phenyl]-6-methoxyaminopyrimidine] as the compound, how does the melting point read?
**A.** 188 to 189 °C

**Q.** Which melting point does the source give for `COC1(F)C=C(Cl)C=CC1c1ncnc(C)c1C` (stereo not shown) [J-1, 4-(4-Chloro-2-fluoro-2-methoxyphenyl)-5,6-dimethyl-pyrimidine] here?
**A.** 156 to 157 °C

**Q.** Which melting point does the source give for `C#CCOc1cc(-c2ncnc(C)c2C)c(F)cc1Cl` [J-3, 4-(4-Chloro-2-fluoro-5-propargyloxyphenyl)-5,6-dimethyl pyrimidine] here?
**A.** 131 to 133 °C

**Q.** With `COc1cc(-c2ncnc(C(F)(F)F)c2C)c(F)cc1Cl` [J-5, 4-(4-Chloro-2-fluoro-5-methoxyphenyl)-5-methyl-6-trifluoromethylpyrimidine] as the compound, how does the melting point read?
**A.** 144 to 146 °C

**Q.** Which melting point does the source give for `C#CCOc1cc(-c2ncnc(C(F)(F)F)c2C)c(F)cc1Cl` [J-7, 4-(4-Chloro-2-fluoro-5-propargyloxyphenyl)-5-methyl-6-trifluoromethylpyrimidine] here?
**A.** 90 to 92 °C

**Q.** Which melting point does the source give for `CCS(=O)(=O)N(C(C)=O)c1cc(-c2ncnc(C(F)F)c2Cl)c(F)cc1C#N` [J-14, 4-[5-(N-acetyl-N-ethylsulfonylamino)-4-cyano-2-fluorophenyl]-5-chloro-6-difluoromethylpyrimidine] here?
**A.** 123 to 124 °C

**Q.** Which melting point does the source give for `COc1ncnc(-c2cc(NS(C)(=O)=O)c(C#N)cc2F)c1C` [J-16, 4-(4-cyano-5-methylsulfonylamino-2-fluorophenyl)-6-methoxy-5-methylpyrimidine] here?
**A.** 218 to 220 °C

**Q.** For `COc1cc(-c2ncnc(OC)c2C#N)c(F)cc1Cl` [K-1, 4-(4-Chloro-2-fluoro-5-methoxyphenyl)-5-cyano-6-methoxypyrimidine], which melting point is on record?
**A.** 183 to 185 °C

**Q.** Which melting point does the source give for `CCS(=O)(=O)Nc1cc(-c2ncnc(OC)c2C#N)c(F)cc1C#N` [K-3, 4-(4-Cyano-5-ethylsulfonylamino-2-fluorophenyl)-5-cyano-6-methoxypyrimidine] here?
**A.** 187 to 189 °C

**Q.** Which melting point does the source give for `COC(=O)c1cc(-c2ncnc(C)c2C#N)c(F)cc1Cl` [K-19, Methyl 2-chloro-5-(5-cyano-6-methylpyrimidin-4-yl)-4-fluorobenzoate] here?
**A.** 142 to 144 °C

**Q.** For `COc1ncnc(-c2cc(NS(C)(=O)=O)c(Cl)cc2Cl)c1C#N` [K-20, 4-(2,4-Dichloro-5-methylsulfonylaminophenyl)-5-cyano-6-methoxypyrimidine], which melting point is on record?
**A.** 160 to 162 °C

**Q.** With `COc1cc(-c2ncnc(OC)c2C=O)c(F)cc1Cl` [L-1, 4-(4-Chloro-2-fluoro-5-methoxyphenyl)-5-formyl-6-methoxypyrimidine] as the compound, how does the melting point read?
**A.** 161 to 163 °C

Reference: US20040092402A1, “Pyrimidine derivatives and herbicides containing the same” (priority 2000, published 2004)
